Laboratory results taken from the NIST ThermoML archive (doi:10.1016/j.jct.2019.03.036).
± gives the expanded uncertainty stated by the source. Blank lines part the entries; values can stand above or below the compound they belong to.

Conditions: Liquid, Ebulliometric method (Recirculating still)

vapor or sublimation pressure (463.27 K): 101.3 ± 3.6 kPa
SMILES: C[S+](C)[O-] [dimethyl sulfoxide]

vapor or sublimation pressure (350.29 K): 101.3 ± 3.6 kPa
SMILES: CCOC(C)=O [ethyl acetate]

vapor or sublimation pressure (374.62 K): 101.3 ± 3.6 kPa
SMILES: CCCOC(C)=O [propyl ethanoate]
